Results from patent publication US10442835B2, “Water-soluble rapamycin derivatives” (Zhejiang Hisun Pharmaceutical Co., Ltd., priority 2016, dated 2019).

What was measured:
[1] = Drug release in serum by prodrugs; format: in vitro ADME, rat; details: 37° C.; HPLC at 10 min to 4 h
Protocol: The effects of the compounds according to the present invention as prodrugs of rapamycin can be confirmed by standard operational procedures of pharmacological experiments.
10 mL ZnCl2 solution with a concentration of 0.10 mol/L was prepared for use.
1.5 mL blood from ophthalmic artery of rats was injected into a 1.5 mL centrifuge tube and was centrifuged at 12000 rad/min for 10 min. 300 μl supernate (serum) was pipetted into a 1.5 mL centrifuge tube. 7 samples of the serum were prepared for use with the same method.
As a blank control, 100 μl water was added to centrifuge tube No. 7. Then the tubes were incubated at 37° C. in an incubator.
300 μl acetonitrile and 300 μl ZnCl2 solution of 0.1 mol/L were added to each of centrifuge tubes No. 1-6 at 10 min, 0.5 h, 1 h, 2 h, 3 h, and 4 h, respectively. The tubes were vortexed homogeneously for 5 min, so as to end the action of the enzyme in the serum on the compounds. 300 μl acetonitrile and 300 μl ZnCl2 solution of 0.1 M were added to the centrifuge tube No. 7 at 4 h, which was then vortexed homogeneously for 5 min.
Each of the centrifuge tubes No. 1-7 was centrifuged at 12000 rad/min for 15 min. The protein in the serum was removed via centrifuging.

[2] = Body weight of OS-RC-2 tumor nude mice
Protocol: The experiment was terminated and tumors were stripped and weighted. The tumor inhibition rate was calculated.
The body weight can indirectly reflect the toxicity of the drugs.

[3] = Day 5, G4 compound I-1 8.12 mg/kg ig 3×/qw
[4] = Day 5, G5 compound I-1 2.0 mg/kg iv 3×/qw
[5] = Day 5, G6 compound I-1 8.12 mg/kg iv 3×/qw
[6] = Day 5, G7 compound I-1 32.7 mg/kg iv 1×/qw
[7] = Day 8, G4 compound I-1 8.12 mg/kg ig 3×/qw
[8] = Day 8, G5 compound I-1 2.0 mg/kg iv 3×/qw
[9] = Day 8, G6 compound I-1 8.12 mg/kg iv 3×/qw
[10] = Day 8, G7 compound I-1 32.7 mg/kg iv 1×/qw
[11] = Day 12, G4 compound I-1 8.12 mg/kg ig 3×/qw
[12] = Day 12, G5 compound I-1 2.0 mg/kg iv 3×/qw
[13] = Day 12, G6 compound I-1 8.12 mg/kg iv 3×/qw
[14] = Day 12, G7 compound I-1 32.7 mg/kg iv 1×/qw
[15] = Day 15, G4 compound I-1 8.12 mg/kg ig 3×/qw
[16] = Day 15, G5 compound I-1 2.0 mg/kg iv 3×/qw
[17] = Day 15, G6 compound I-1 8.12 mg/kg iv 3×/qw
[18] = Day 15, G7 compound I-1 32.7 mg/kg iv 1×/qw
[19] = Day 19, G4 compound I-1 8.12 mg/kg ig 3×/qw
[20] = Day 19, G5 compound I-1 2.0 mg/kg iv 3×/qw
[21] = Day 19, G6 compound I-1 8.12 mg/kg iv 3×/qw
[22] = Day 19, G7 compound I-1 32.7 mg/kg iv 1×/qw
[23] = Day 22, G4 compound I-1 8.12 mg/kg ig 3×/qw
[24] = Day 22, G5 compound I-1 2.0 mg/kg iv 3×/qw
[25] = Day 22, G6 compound I-1 8.12 mg/kg iv 3×/qw
[26] = Day 22, G7 compound I-1 32.7 mg/kg iv 1×/qw
[27] = Day 26, G4 compound I-1 8.12 mg/kg ig 3×/qw
[28] = Day 26, G5 compound I-1 2.0 mg/kg iv 3×/qw
[29] = Day 26, G6 compound I-1 8.12 mg/kg iv 3×/qw
[30] = Day 26, G7 compound I-1 32.7 mg/kg iv 1×/qw
[31] = Day 29, G4 compound I-1 8.12 mg/kg ig 3×/qw
[32] = Day 29, G5 compound I-1 2.0 mg/kg iv 3×/qw
[33] = Day 29, G6 compound I-1 8.12 mg/kg iv 3×/qw
[34] = Day 29, G7 compound I-1 32.7 mg/kg iv 1×/qw
[35] = Day 32, G4 compound I-1 8.12 mg/kg ig 3×/qw
[36] = Day 32, G5 compound I-1 2.0 mg/kg iv 3×/qw
[37] = Day 32, G6 compound I-1 8.12 mg/kg iv 3×/qw
[38] = Day 32, G7 compound I-1 32.7 mg/kg iv 1×/qw

## CO[C@H]1C[C@@H]2CC[C@@H](C)[C@@](O)(O2)C(=O)C(=O)N2CCCC[C@H]2C(=O)OC([C@H](C)C[C@@H]2CC[C@@H](OCCOC(=O)CSC[C@H](NC(=O)CC[C@H](N)C(=O)O)C(=O)NCC(=O)O)[C@H](OC)C2)CC(=O)[C@H](C)/C=C(\C)[C@@H](O)[C@@H](OC)C(=O)[C@H](C)C[C@@H](C)\C=C/C=C/C=C/1C (stereo partly drawn) [Compound I-1]
[1]
  release of everolimus in rat's serum: slowly release everolimus
other
  stability after dissolving in normal saline: the resulted solution is stable
[2]; Day 1, G4 compound I-1 8.12 mg/kg ig 3×/qw
  Body Weight, mean value: 21.04 g
[2]; Day 1, G5 compound I-1 2.0 mg/kg iv 3×/qw
  Body Weight, mean value: 20.67 g
[2]; Day 1, G6 compound I-1 8.12 mg/kg iv 3×/qw
  Body Weight, mean value: 21.39 g
[2]; Day 1, G7 compound I-1 32.7 mg/kg iv 1×/qw
  Body Weight, mean value: 21.28 g
[2]; [3]
  Body Weight, mean value: 20.27 g
  Decrease rate of body weight: 3.7%
[2]; [4]
  Body Weight, mean value: 19.27 g
  Decrease rate of body weight: 6.8%
[2]; [5]
  Body Weight, mean value: 20.46 g
  Decrease rate of body weight: 4.4%
[2]; [6]
  Body Weight, mean value: 19.97 g
  Decrease rate of body weight: 6.2%
[2]; [7]
  Body Weight, mean value: 20.04 g
  Decrease rate of body weight: 4.8%
[2]; [8]
  Body Weight, mean value: 18.76 g
  Decrease rate of body weight: 9.2%
[2]; [9]
  Body Weight, mean value: 21.16 g
  Decrease rate of body weight: 1.1%
[2]; [10]
  Body Weight, mean value: 20.14 g
  Decrease rate of body weight: 5.3%
[2]; [11]
  Body Weight, mean value: 19.62 g
  Decrease rate of body weight: 6.7%
[2]; [12]
  Body Weight, mean value: 18.71 g
  Decrease rate of body weight: 9.5%
[2]; [13]
  Body Weight, mean value: 21.25 g
  Decrease rate of body weight: 0.7%
[2]; [14]
  Body Weight, mean value: 19.93 g
  Decrease rate of body weight: 6.3%
[2]; [15]
  Body Weight, mean value: 19.29 g
  Decrease rate of body weight: 8.3%
[2]; [16]
  Body Weight, mean value: 18.18 g
  Decrease rate of body weight: 12.0%
[2]; [17]
  Body Weight, mean value: 20.71 g
  Decrease rate of body weight: 3.2%
[2]; [18]
  Body Weight, mean value: 19.38 g
  Decrease rate of body weight: 8.9%
[2]; [19]
  Body Weight, mean value: 19.19 g
  Decrease rate of body weight: 8.8%
[2]; [20]
  Body Weight, mean value: 18.30 g
  Decrease rate of body weight: 11.5%
[2]; [21]
  Body Weight, mean value: 19.67 g
  Decrease rate of body weight: 8.0%
[2]; [22]
  Body Weight, mean value: 19.12 g
  Decrease rate of body weight: 10.2%
[2]; [23]
  Body Weight, mean value: 19.19 g
  Decrease rate of body weight: 8.8%
[2]; [24]
  Body Weight, mean value: 18.30 g
  Decrease rate of body weight: 11.5%
[2]; [25]
  Body Weight, mean value: 19.67 g
  Decrease rate of body weight: 8.0%
[2]; [26]
  Body Weight, mean value: 19.12 g
  Decrease rate of body weight: 10.2%
[2]; [27]
  Body Weight, mean value: 19.65 g
  Decrease rate of body weight: 6.6%
[2]; [28]
  Body Weight, mean value: 17.95 g
  Decrease rate of body weight: 13.1%
[2]; [29]
  Body Weight, mean value: 19.31 g
  Decrease rate of body weight: 9.7%
[2]; [30]
  Body Weight, mean value: 19.12 g
  Decrease rate of body weight: 10.2%
[2]; [31]
  Body Weight, mean value: 20.02 g
  Decrease rate of body weight: 4.8%
[2]; [32]
  Body Weight, mean value: 18.29 g
  Decrease rate of body weight: 11.5%
[2]; [33]
  Body Weight, mean value: 19.04 g
  Decrease rate of body weight: 10.5%
[2]; [34]
  Body Weight, mean value: 19.04 g
  Decrease rate of body weight: 10.5%
[2]; [35]
  Body Weight, mean value: 19.87 g
  Decrease rate of body weight: 5.6%
[2]; [36]
  Body Weight, mean value: 18.12 g
  Decrease rate of body weight: 12.3%
[2]; [37]
  Body Weight, mean value: 18.80 g
  Decrease rate of body weight: 11.7%
[2]; [38]
  Body Weight, mean value: 18.94 g
  Decrease rate of body weight: 10.7%
